According to patent US20030135033A1, “Compounds and methods for the identification and/ or validation of a target” (priority 2002, published 2003):
d = 2'-deoxy (DNA); m = 2'-O-methyl

Assays:
MEK = test: Akt phosphorylation induced by PTEN GeneBlocs in 3Y1 cells in presence of MEK inhibitor; type: cell-based, rat; details: 30 nM PTEN 53 or 57, 48 h, 50 μM PD98059 30 min before lysis
Experimental: In this experiment two different antisense oligonucleotides (PTEN 53 and PTEN 57) were used together with further compounds, namely DMSO (D), Ly294002 (Ly) and PD98059 (PD) being an inhibitor for MEK-½ kinase. More particularly, the first test was carried out using the antisense oligonucleotide PTEN 53 in combination either with DMSO, LY or PD. The same experiment was carried out using PTEN 57 also directed against PTEN mRNA, and using GBC as defined above as a control antisense oligonucleotide. More particularly, 3Y1 cells on 10 cm plates were transfected in triplicates with 30 nM of the GeneBlocs PTEN 53, 57 or with GBC for 48 h. 30 min before lysis the cells were treated with 10 μM PI 3-kinase inhibitor LY294002 (LY), 50 μM MEK inhibitor PD98059 (PD) or with the vehicle DMSO (D). The positions of p110, phosphorylated Akt (P*-Akt) and PTEN are indicated on the right. […]
Pools of stably transfected HeLa cells in growth medium were stimulated with 200 nM 4-OHT in dimethylsulfoxide (DMSO) or with DMSO at 37° C. for 20 h. In experiments in which the effect of LY294002 or PD98059 was analyzed, the reagents were added in DMSO at 10 μg/ml or 50 μg/ml 30 min to 1 h before lysis. […]

Hela cells = test: Cell growth on matrigel; type: cell-based, human; details: 48 h transfection, then 48 to 72 h on matrigel, versus control GeneBloc
Text: More particularly, a schematic pathway with PTEN inhibiting PI-3K activity is shown which would normally phosphorylate Akt thus leading to proliferation, survival and migration of HeLa cells as a model system for PTEN +/+ cells. FIG. 9 B presents the Western immunoblot analysis of an experiment studying the influence of PTEN specific antisense oligonucleotide or a control antisense nucleotide designated as mismatch GeneBloc™. PTEN is only present in the control sample, but is absent when PTEN-specific antisense oligonucleotides are used. The successful knockdown of PTEN causes phosphorylation of Akt, indicative of induction of the signalling pathway. […] Growth on matrigel is used as a surrogate in vitro assay for metastatic or invasive cell growth. […]
Loss of PTEN function has been correlated with an increased metastatic growth potential in late stage human cancers (Cantley, L. C. and Neel, B. G. (1999). New insights into tumor suppression: PTEN suppresses tumor formation by restraining the phosphoinositide 3-kinase/AKT pathway. Proc Natl Acad Sci U S A 96, 4240-4245; Ali, I. U. (2000). Gatekeeper for endometrium: the PTEN tumor suppressor gene. J Natl Cancer Inst 92, 861-863). […] HeLa cells expressing an inducible version of a constitutively active PI 3-kinase, p110* […] were analyzed in parallel. […]

PI 3-kinase = test: Akt phosphorylation induced by PTEN GeneBlocs in 3Y1 cells in presence of PI 3-kinase inhibitor; type: cell-based, rat; details: 30 nM PTEN 53 or 57, 48 h, 10 μM LY294002 30 min before lysis

**Q.** COc1cccc(-c2cc(=O)c3ccccc3o2)c1N [PD98059] was tested. Which “increase in Akt phosphorylation induced by the PTEN GeneBlocs” value (MEK) did it give?
**A.** had no effect

**Q.** How did the growth on matrigel (Hela cells) turn out when “cuggaucAGAGTCAGTgguguca (CUGGAUCAGAGTCAGTGGUGUCA; sugars from the 5' end m7 d9 m7, backbone and methylation of C not given here; DNA gap phosphorothioate-linked, ends capped, inverted abasic or similar, further chemistry not fully specified) [PTEN 52, third generation antisense oligonucleotide (GeneBloc) against PTEN]” was run?
**A.** increased potential to form network structures on matrigel and grew better

**Q.** For O=c1cc(N2CCOCC2)oc2c(-c3ccccc3)cccc12 [LY294002, 2-(4-morpholinyl)-8-phenylchromone], which “increase in Akt phosphorylation induced by the PTEN GeneBlocs” value (PI 3-kinase) is on record?
**A.** completely abrogated
